Laboratory results: US11472814B2, “Thienopyranones and furanopyranones as checkpoint inhibitors and modulators of anti-tumor immunity” (SignalRx Pharmaceuticals, Inc., priority 2017, dated 2022)

Experiments:
SYK = molecular target: T1, SYK (Homo sapiens, UniProt P43405); assay: SYK inhibition IC50 (Reaction Biology Corp.); type: biochemical; details: 10-point curve; read-out: SYK IC50
T1 construct: purchased Reaction Biology Corp., Malvern, Pa; (contract assay service)
From the text: (§1) The inhibitory activity of a compound of the invention against PI3K and/or BRD4 and/or SYK and/or CDK4/6 can be readily determined using methods known to the skilled artisan, or by commercial vendors offering such services. […] In vivo, PI3K inhibition can be determined from target tissue biopsies by standard tissue processing to disrupt cells and then performing Western Blot analysis to determine the presence or absence of pAKT (substrate of PI3K) relative to a control sample. The activity of a compound of the invention as an inhibitor of a bromodomain-containing protein, such as a BET protein, such as BRD2, BRD3, BRD4, and/or BRDT, or an isoform or mutant thereof, may be determined in vitro, in vivo, or in a cell line. In vitro assays include assays that determine inhibition of bromodomain-containing proteins. Alternatively, inhibitor binding may be determined by running a competition experiment where a provided compound is incubated with a bromodomain-containing protein, such as a BET protein bound to known ligands, labeled or unlabeled. For example, bromodomain inhibition can be determined in vitro using Alpha Screen Technology (http://www.reactionbiologv.com/webapps/site/NewsPDFs/Bromodomain%20Assay %20Platform %20for %20Drug %20Screening %20and %20Discovery.pdf). In vivo bromodomain inhibition can be determined indirectly by evaluating the amount of protein present of proteins whose genes' transcription is influenced or controlled by the bromodomain protein, for example, the MYCN protein transcription is controlled by BRD4 (J. E. Delmore et al., Cell 2011, 146, 904-917; A. Puissant, Cancer Discov. 2013, 3, 308-323). Bromodomain inhibition may also be predicted by in silico modeling as described below in the Examples. Additionally, the company Promega offers a SYK luminescent assay to determine a compound's ability to inhibit the SYK protein (https://www.promega.com/-/media/files/resources/protocols/kinase-enzyme-appnotes/syk-kinase-assay-protocol.pdf?la=en).
Compounds of the invention were characterized for their ability to inhibit target proteins using third party vendors offering such services. PI3K alpha, gamma, and delta inhibition activity was determined by Thermo Fisher Scientific-Biosciences Life Sciences Solutions, Madison, Wis. The bromodomain protein inhibition (binding domain 1 and 2 of BRD4) as well as SYK inhibition was determined at Reaction Biology Corp., Malvern, Pa. Additional information on each of the assays performed and services provided is available at each company's website on the internet (https://www.thermofisher.com/us/en/home/life-science.html and http://www.reactionbiology.com/webapps/site, respectively). The IC50 data (shown below in Table 5) was calculated from a 10-point curve and is expressed in nanomolar concentration (nM) rounded off to the nearest whole number. Where multiple values were obtained the range from lowest to highest values is presented. NI=no inhibition detected up to 50 uM or IC50 not reached at 50 uM.

BRD4-1 = molecular target: T2, BRD4-1 (Homo sapiens, UniProt O60885); assay: Bromodomain protein inhibition IC50, binding domain 1 of BRD4 (Reaction Biology Corp.); details: 10-point curve
T2 construct: purchased Reaction Biology Corp., Malvern, Pa; (contract assay service)
From the text: as §1
(§2) Compounds of the invention were characterized for their ability to inhibit target proteins using third party vendors offering such services. PI3K alpha, gamma, and delta inhibition activity was determined by Thermo Fisher Scientific-Biosciences Life Sciences Solutions, Madison, Wis. The bromodomain protein inhibition (binding domain 1 and 2 of BRD4) as well as SYK inhibition was determined at Reaction Biology Corp., Malvern, Pa. […] The IC50 data (shown below in Table 5) was calculated from a 10-point curve and is expressed in nanomolar concentration (nM) rounded off to the nearest whole number. […]

[1] = tested on: Bone marrow derived macrophages (BMDMs), M1 gene expression; assay: M1 marker mRNA in LPS stimulated bone marrow derived macrophages (RT PCR); type: cell-based, murine; details: for Il1 mRNA expression relative to control / Il6 mRNA expression relative to control / Tnfa mRNA expression relative to control: LPS stimulated BMDMs, 24 hours, normalized to GAPDH, control = 1
From the text: […] M2 markers Mmr, Ym1, Fizz1 and Mgl mRNA and M1 markers I11, 116 and Tnfa mRNA was quantitated by RT PCR. Values are mean±SEM (n=3-4). Expression of gene of interest is normalized to GAPDH. […] The data provide direct evidence that Compound 1 can block the immunosuppressive macrophage M2 gene expression and activate the M1 gene expression and therefore activate antitumor innate immune cell differentiation in vitro.
(§3) Relative mRNA expression of IL4 or LPS polarized genes in murine bone marrow derived macrophages (BMDMs) treated with various concentrations of inhibitors in vitro. Conclusion: Compound 3 suppressed in vitro macrophage specific immunosuppressive M2 gene expression markers and augmented macrophage stimulatory immune response M1 genes respectively.

[2] = tested on: Bone marrow derived macrophages (BMDMs), M2 gene expression; assay: M2 marker mRNA in IL4 stimulated bone marrow derived macrophages (RT PCR); type: cell-based, murine; details: for Arg mRNA expression relative to control / Fizz1 mRNA expression relative to control / Mmr mRNA expression relative to control / Ym1 mRNA expression relative to control / Mgl mRNA expression relative to control: IL4 stimulated BMDMs, 24 hours, normalized to GAPDH, control = 1
Experimental: Bone marrow derived macrophages (MOs) (BMDMs) were exposed to IL4 or LPS for 24 hours to stimulate the M2 or M1 macrophage transition in presence of Compound 1 and the known SYK inhibitor Bay-61-3606 at 1 μM conc. M2 markers Mmr, Ym1, Fizz1 and Mgl mRNA and M1 markers I11, 116 and Tnfa mRNA was quantitated by RT PCR. Values are mean±SEM (n=3-4). Expression of gene of interest is normalized to GAPDH. […] The data provide direct evidence that Compound 1 can block the immunosuppressive macrophage M2 gene expression and activate the M1 gene expression and therefore activate antitumor innate immune cell differentiation in vitro.
as §3

BRD4-2 = molecular target: T3, BRD4-2 (Homo sapiens, UniProt O60885); assay: Bromodomain protein inhibition IC50, binding domain 2 of BRD4 (Reaction Biology Corp.); details: 10-point curve
T3 construct: purchased Reaction Biology Corp., Malvern, Pa; (contract assay service)
From the text: as §1, §2

PI3K γ = molecular target: T4, PI3K γ (Homo sapiens, UniProt P48736); assay: PI3K gamma inhibition IC50 (Thermo Fisher); type: biochemical; details: 10-point curve
T4 construct: purchased Thermo Fisher Scientific-Biosciences Life Sciences Solutions, Madison, Wis; (contract assay service)
From the text: as §1, §2

PI3K α = molecular target: T5, PI3K α (Homo sapiens, UniProt P42336); assay: PI3K alpha inhibition IC50 (Thermo Fisher); type: biochemical; details: 10-point curve
T5 construct: purchased Thermo Fisher Scientific-Biosciences Life Sciences Solutions, Madison, Wis; (contract assay service)
From the text: as §1, §2

[3] = tested on: Bone marrow derived macrophages (BMDMs), M2 gene expression; assay: M2 marker mRNA in IL4 stimulated bone marrow derived macrophages (RT PCR); type: cell-based, murine; details: 24 hours, normalized to GAPDH, control = 1

T5 sequence (P42336 whole entry): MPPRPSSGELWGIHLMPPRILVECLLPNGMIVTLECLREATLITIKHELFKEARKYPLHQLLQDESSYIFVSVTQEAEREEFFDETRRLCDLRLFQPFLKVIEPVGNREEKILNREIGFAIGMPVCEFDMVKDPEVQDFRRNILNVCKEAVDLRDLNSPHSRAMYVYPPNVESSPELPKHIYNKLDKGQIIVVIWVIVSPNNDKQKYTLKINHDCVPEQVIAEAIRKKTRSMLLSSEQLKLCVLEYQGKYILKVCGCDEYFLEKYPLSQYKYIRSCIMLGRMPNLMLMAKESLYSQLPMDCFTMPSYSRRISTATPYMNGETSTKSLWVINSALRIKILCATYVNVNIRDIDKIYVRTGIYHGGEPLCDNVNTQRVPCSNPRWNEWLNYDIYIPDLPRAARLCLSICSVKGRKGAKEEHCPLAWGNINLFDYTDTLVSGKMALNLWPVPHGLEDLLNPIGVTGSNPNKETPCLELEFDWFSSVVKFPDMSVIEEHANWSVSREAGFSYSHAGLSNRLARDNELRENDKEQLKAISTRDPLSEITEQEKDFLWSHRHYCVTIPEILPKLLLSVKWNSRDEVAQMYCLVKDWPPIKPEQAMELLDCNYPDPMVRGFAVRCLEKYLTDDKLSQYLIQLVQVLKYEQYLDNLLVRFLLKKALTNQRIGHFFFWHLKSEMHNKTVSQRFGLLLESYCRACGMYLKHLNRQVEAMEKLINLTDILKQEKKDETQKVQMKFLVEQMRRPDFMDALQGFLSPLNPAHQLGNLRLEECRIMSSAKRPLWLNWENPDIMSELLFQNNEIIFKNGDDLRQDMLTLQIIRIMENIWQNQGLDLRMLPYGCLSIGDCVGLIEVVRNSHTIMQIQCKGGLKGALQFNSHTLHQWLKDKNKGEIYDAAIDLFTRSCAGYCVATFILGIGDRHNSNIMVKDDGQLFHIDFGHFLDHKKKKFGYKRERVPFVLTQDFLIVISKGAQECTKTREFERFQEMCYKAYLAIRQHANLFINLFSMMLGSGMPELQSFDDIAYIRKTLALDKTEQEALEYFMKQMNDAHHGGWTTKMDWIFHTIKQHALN
T5 sequence (P27986 whole entry partner): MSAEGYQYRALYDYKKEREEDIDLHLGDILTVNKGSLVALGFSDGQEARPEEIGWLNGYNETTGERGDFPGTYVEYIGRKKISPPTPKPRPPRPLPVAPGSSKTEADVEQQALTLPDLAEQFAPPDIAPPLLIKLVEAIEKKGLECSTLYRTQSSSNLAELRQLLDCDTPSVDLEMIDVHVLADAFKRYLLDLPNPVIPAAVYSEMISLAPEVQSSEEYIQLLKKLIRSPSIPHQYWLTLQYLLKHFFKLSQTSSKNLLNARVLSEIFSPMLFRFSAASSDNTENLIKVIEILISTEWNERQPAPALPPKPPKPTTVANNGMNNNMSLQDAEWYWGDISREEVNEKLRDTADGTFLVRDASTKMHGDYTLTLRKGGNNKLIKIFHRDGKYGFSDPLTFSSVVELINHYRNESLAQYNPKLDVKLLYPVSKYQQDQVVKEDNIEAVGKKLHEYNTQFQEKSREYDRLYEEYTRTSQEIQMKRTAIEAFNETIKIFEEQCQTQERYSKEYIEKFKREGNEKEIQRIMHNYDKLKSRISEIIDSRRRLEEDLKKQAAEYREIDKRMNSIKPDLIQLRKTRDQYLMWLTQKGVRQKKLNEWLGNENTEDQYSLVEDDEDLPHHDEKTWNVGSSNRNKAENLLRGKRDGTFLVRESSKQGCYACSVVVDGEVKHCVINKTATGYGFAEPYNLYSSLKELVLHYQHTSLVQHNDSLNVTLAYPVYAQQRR
T4 sequence (P48736 whole entry): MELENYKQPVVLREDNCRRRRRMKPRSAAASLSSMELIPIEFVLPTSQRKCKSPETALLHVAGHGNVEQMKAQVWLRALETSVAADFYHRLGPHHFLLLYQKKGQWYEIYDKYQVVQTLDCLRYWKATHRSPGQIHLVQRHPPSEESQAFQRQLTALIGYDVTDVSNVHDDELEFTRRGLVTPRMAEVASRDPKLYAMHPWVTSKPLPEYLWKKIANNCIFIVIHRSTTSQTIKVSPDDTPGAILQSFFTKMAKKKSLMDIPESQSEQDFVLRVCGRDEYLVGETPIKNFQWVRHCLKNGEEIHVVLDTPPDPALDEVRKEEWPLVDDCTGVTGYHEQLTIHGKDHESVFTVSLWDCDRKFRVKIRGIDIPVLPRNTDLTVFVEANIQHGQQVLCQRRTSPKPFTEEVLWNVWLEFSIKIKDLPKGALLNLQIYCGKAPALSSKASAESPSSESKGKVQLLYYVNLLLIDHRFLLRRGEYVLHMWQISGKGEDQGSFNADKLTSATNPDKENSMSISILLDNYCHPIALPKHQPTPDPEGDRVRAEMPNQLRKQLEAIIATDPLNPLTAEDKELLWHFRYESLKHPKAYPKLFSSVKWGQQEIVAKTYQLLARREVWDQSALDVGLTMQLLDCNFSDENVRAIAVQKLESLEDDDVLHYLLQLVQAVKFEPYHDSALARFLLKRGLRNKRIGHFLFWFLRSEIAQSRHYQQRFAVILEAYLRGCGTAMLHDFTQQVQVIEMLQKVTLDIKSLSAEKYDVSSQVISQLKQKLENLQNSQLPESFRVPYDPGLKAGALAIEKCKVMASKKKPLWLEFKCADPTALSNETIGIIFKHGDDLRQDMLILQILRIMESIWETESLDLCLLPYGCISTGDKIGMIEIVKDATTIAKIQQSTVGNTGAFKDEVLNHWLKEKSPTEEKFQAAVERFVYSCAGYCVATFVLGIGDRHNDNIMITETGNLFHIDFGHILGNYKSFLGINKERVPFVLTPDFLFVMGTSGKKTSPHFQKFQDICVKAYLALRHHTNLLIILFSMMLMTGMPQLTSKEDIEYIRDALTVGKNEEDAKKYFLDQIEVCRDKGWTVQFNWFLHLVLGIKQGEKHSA

`Cc1nn(-c2ccnc(Nc3ccc(-c4csc5c(=O)cc(N6CCOCC6)oc45)cc3)n2)cc1CN1CC(O)C1` [Compound 1, 3-[p-(4-{4-[(3-Hydroxy-1-azetidinyl)methyl]-3-methyl-1H-pyrazol-1-yl}-2-pyrimidinylamino)phenyl]-5-morpholino-4-oxa-1-thia-7-indenone] was tested, and the IC50 (SYK) was under 0.1 µM, the IC50 (BRD4-1) was over 50 µM and the “Il1 mRNA expression relative to control” value ([1]; 200 nM) was 1.1. For the same compound, the “Il6 mRNA expression relative to control” value ([1]; 200 nM) was 1.7, the “Tnfa mRNA expression relative to control” value ([1]; 200 nM) was 0.88 and the “Il1 mRNA expression relative to control” value ([1]; 500 nM) was 1.1. The “Il6 mRNA expression relative to control” value ([1]; 500 nM) was 1.29, the “Tnfa mRNA expression relative to control” value ([1]; 500 nM) was 1.23 and the “Il1 mRNA expression relative to control” value ([1]; 1 μM) was 1.2. For the same compound, the “Il6 mRNA expression relative to control” value ([1]; 1 μM) was 3.15, the “Tnfa mRNA expression relative to control” value ([1]; 1 μM) was 1.70 and the “Il1 mRNA expression relative to control” value ([1]; 2 μM) was 1.25. For the same compound, the “Il6 mRNA expression relative to control” value ([1]; 2 μM) was 1.59, the “Tnfa mRNA expression relative to control” value ([1]; 2 μM) was 1.99 and the “Il1 mRNA expression relative to control” value ([1]; 5 μM) was 0.69. For the same compound, the “Il6 mRNA expression relative to control” value ([1]; 5 μM) was 0.97, the “Tnfa mRNA expression relative to control” value ([1]; 5 μM) was 0.90 and the “M1 inflammatory gene expression” value ([1]; BMDMs, LPS 24 hours, 1 μM) was “augments M1 inflammatory gene expression”. The “Arg mRNA expression relative to control” value ([2]; 200 nM) was 0.5, the “Fizz1 mRNA expression relative to control” value ([2]; 200 nM) was 0.44 and the “Mmr mRNA expression relative to control” value ([2]; 200 nM) was 0.41. The “Ym1 mRNA expression relative to control” value ([2]; 200 nM) was 0.37, the “Arg mRNA expression relative to control” value ([2]; 500 nM) was 0.45 and the “Fizz1 mRNA expression relative to control” value ([2]; 500 nM) was 0.31. The “Mgl mRNA expression relative to control” value ([2]; 500 nM) was 0.41, the “Mmr mRNA expression relative to control” value ([2]; 500 nM) was 0.18 and the “Ym1 mRNA expression relative to control” value ([2]; 500 nM) was 0.21. The “Arg mRNA expression relative to control” value ([2]; 1 μM) was 0.39, the “Fizz1 mRNA expression relative to control” value ([2]; 1 μM) was 0.11 and the “Mgl mRNA expression relative to control” value ([2]; 1 μM) was 0.30. For the same compound, the “Mmr mRNA expression relative to control” value ([2]; 1 μM) was 0.19, the “Ym1 mRNA expression relative to control” value ([2]; 1 μM) was 0.10 and the “Arg mRNA expression relative to control” value ([2]; 2 μM) was 0.14. The “Mgl mRNA expression relative to control” value ([2]; 2 μM) was 0.40, the “Mmr mRNA expression relative to control” value ([2]; 2 μM) was 0.14 and the “Ym1 mRNA expression relative to control” value ([2]; 2 μM) was 0.11. For the same compound, the “Arg mRNA expression relative to control” value ([2]; 5 μM) was 0.22, the “Fizz1 mRNA expression relative to control” value ([2]; 5 μM) was 0.06 and the “Mgl mRNA expression relative to control” value ([2]; 5 μM) was 0.24. For the same compound, the “Mmr mRNA expression relative to control” value ([2]; 5 μM) was 0.18, the “Ym1 mRNA expression relative to control” value ([2]; 5 μM) was 0.04 and the “immunosuppressive macrophage M2 gene expression” value ([2]; BMDMs, IL4 24 hours, 1 μM) was “blocks immunosuppressive M2 gene expression”. It also gave an IC50 (BRD4-2) of over 50 µM, an IC50 (PI3K γ) of 5 to 50 µM and an IC50 (PI3K α) of 0.1 to 1 µM. The “Mgl mRNA expression relative to control” value ([3]; 200 nM) was 0.31 and the “Fizz1 mRNA expression relative to control” value ([3]; 2 μM) was 0.22.
